Source: publication PMC8565742 (PLoS Neglected Tropical Diseases, 2021)

Experiments:
Sm.TRPMPZQ [1] = target: T1, Sm.TRPMPZQ (Schistosoma mansoni, UniProt A0A5K4F0X5); conditions: human TRPM8 agonists; cited from earlier work
endogenous receptors = conditions: confocal Ca2+ imaging; cited from earlier work
Sm.TRPMPZQ [2] = target: T1, Sm.TRPMPZQ; experiment: cell-based; conditions: S3 Table, titration
Method: HEK cells were transfected with cDNA (400μg/ml DNA) encoding Sm.TRPMPZQ using a Maxcyte STX electroporation system and incubated overnight at 37°C. This system is uniquely capabable of large scale transfections providing one batch of cells ready for large scale HTS [30]. Briefly, the HEK cells were resuspended at 10^8/ml in Maxcyte electroporation buffer. Plasmid DNA was added to the cells in buffer to achieve a concentration of 400 μg/ml from a stock of 5mg/ml (in TE buffer). This mixture was loaded into the appropriate cassette, inserted into the machine, and cells electroporated. Cells were then frozen to provide a single supply of transfected cells for all subsequent assays. On the day of the assays, cells were thawed in a 37°C waterbath, and resuspended in DMEM + 10% FBS and counted. The cells were pelleted by centrifugation at 170xg for 5 minutes. The media was aspirated, and the remaining pellet was resuspended in 1x HBSS with 20 mM HEPES and 1% DMSO to achieve 1.33x10^6cells/ml. This cell suspension was then dispensed at 3 μl/well to the 1536 well plates (Greiner Bio One part 789072) at a density of 4,000 cells/well. Measurements of fluorescence intensity (λex = 470 nm, λem = 535 nm) were made using a FLIPR (Molecular Devices FLIPR Tetra). A read of basal fluorescence values was made (5s) prior to addition of compounds or controls (30 nl). In both ‘agonist’ and ‘antagonist mode’, the total assay volume was 6μl (1% DMSO). […] Ligand performance was categorized using an algorithm based on the activity of the entire dataset to define a ‘hit-cutoff’ parameter for both agonist-mode and antagonist-mode screening. […] Titration assays were executed using the same reagents, protocols and detection systems, done as 10-point concentration-response curves, performed in triplicate. Counter-screening was performed using untransfected HEK293 cells for comparison with results testing the same compounds effect on cells expressing Sm.TRPMPZQ, with ATP used as the positive control. For each compound, activity was plotted against compound concentration and data were fitted with a sigmoidal function. […] ChemAxon (https://www.chemaxon.com) academic licensing was provided for the use of Instant JChem (ver. 15.10.12.0) to perform compound mining of the libraries utilized in this effort.

Sm.TRPMPZQ [3] = target: T1, Sm.TRPMPZQ; experiment: cell-based; conditions: S3 Table, titration; remark: listed apart in the source
Method: HEK cells were transfected with cDNA (400μg/ml DNA) encoding Sm.TRPMPZQ using a Maxcyte STX electroporation system and incubated overnight at 37°C. This system is uniquely capabable of large scale transfections providing one batch of cells ready for large scale HTS [30]. Briefly, the HEK cells were resuspended at 10^8/ml in Maxcyte electroporation buffer. Plasmid DNA was added to the cells in buffer to achieve a concentration of 400 μg/ml from a stock of 5mg/ml (in TE buffer). This mixture was loaded into the appropriate cassette, inserted into the machine, and cells electroporated. Cells were then frozen to provide a single supply of transfected cells for all subsequent assays. On the day of the assays, cells were thawed in a 37°C waterbath, and resuspended in DMEM + 10% FBS and counted. The cells were pelleted by centrifugation at 170xg for 5 minutes. The media was aspirated, and the remaining pellet was resuspended in 1x HBSS with 20 mM HEPES and 1% DMSO to achieve 1.33x10^6cells/ml. […] A read of basal fluorescence values was made (5s) prior to addition of compounds or controls (30 nl). In both ‘agonist’ and ‘antagonist mode’, the total assay volume was 6μl (1% DMSO). […] Ligand performance was categorized using an algorithm based on the activity of the entire dataset to define a ‘hit-cutoff’ parameter for both agonist-mode and antagonist-mode screening. […] Titration assays were executed using the same reagents, protocols and detection systems, done as 10-point concentration-response curves, performed in triplicate. Counter-screening was performed using untransfected HEK293 cells for comparison with results testing the same compounds effect on cells expressing Sm.TRPMPZQ, with ATP used as the positive control. For each compound, activity was plotted against compound concentration and data were fitted with a sigmoidal function.

[4] = tested on: untransfected HEK293 cells; experiment: Counterscreen, agonist mode, Ca2+ signal in untransfected HEK cells; format: cell-based; conditions: S3 Table, counterscreen titration; for EC50: unit inferred, read-out: HEK AG Final EC50
Method: (§1) HEK cells were transfected with cDNA (400μg/ml DNA) encoding Sm.TRPMPZQ using a Maxcyte STX electroporation system and incubated overnight at 37°C. This system is uniquely capabable of large scale transfections providing one batch of cells ready for large scale HTS [30]. Briefly, the HEK cells were resuspended at 10^8/ml in Maxcyte electroporation buffer. Plasmid DNA was added to the cells in buffer to achieve a concentration of 400 μg/ml from a stock of 5mg/ml (in TE buffer). This mixture was loaded into the appropriate cassette, inserted into the machine, and cells electroporated. Cells were then frozen to provide a single supply of transfected cells for all subsequent assays. On the day of the assays, cells were thawed in a 37°C waterbath, and resuspended in DMEM + 10% FBS and counted. The cells were pelleted by centrifugation at 170xg for 5 minutes. The media was aspirated, and the remaining pellet was resuspended in 1x HBSS with 20 mM HEPES and 1% DMSO to achieve 1.33x10^6cells/ml. This cell suspension was then dispensed at 3 μl/well to the 1536 well plates (Greiner Bio One part 789072) at a density of 4,000 cells/well. Measurements of fluorescence intensity (λex = 470 nm, λem = 535 nm) were made using a FLIPR (Molecular Devices FLIPR Tetra). A read of basal fluorescence values was made (5s) prior to addition of compounds or controls (30 nl). In both ‘agonist’ and ‘antagonist mode’, the total assay volume was 6μl (1% DMSO). […] Ligand performance was categorized using an algorithm based on the activity of the entire dataset to define a ‘hit-cutoff’ parameter for both agonist-mode and antagonist-mode screening. Any compound with greater percent activation than this cutoff was assigned as ‘active’ prior to titration and counter-screening. Titration assays were executed using the same reagents, protocols and detection systems, done as 10-point concentration-response curves, performed in triplicate. Counter-screening was performed using untransfected HEK293 cells for comparison with results testing the same compounds effect on cells expressing Sm.TRPMPZQ, with ATP used as the positive control. For each compound, activity was plotted against compound concentration and data were fitted with a sigmoidal function. In order to be considered a hit at this stage a compound must achieve a EC50<5 μM for agonists and IC50 <5 μM for antagonists. All compounds selected for titration were subjected to LC-MS analysis to confirm mass and sample purity. ChemAxon (https://www.chemaxon.com) academic licensing was provided for the use of Instant JChem (ver. 15.10.12.0) to perform compound mining of the libraries utilized in this effort.

[5] = tested on: untransfected HEK293 cells; experiment: Counterscreen, antagonist mode, Ca2+ signal in untransfected HEK cells; format: cell-based; conditions: S3 Table, counterscreen titration
Method: as §1

T1 sequence (A0A5K4F0X5 entry or part of it): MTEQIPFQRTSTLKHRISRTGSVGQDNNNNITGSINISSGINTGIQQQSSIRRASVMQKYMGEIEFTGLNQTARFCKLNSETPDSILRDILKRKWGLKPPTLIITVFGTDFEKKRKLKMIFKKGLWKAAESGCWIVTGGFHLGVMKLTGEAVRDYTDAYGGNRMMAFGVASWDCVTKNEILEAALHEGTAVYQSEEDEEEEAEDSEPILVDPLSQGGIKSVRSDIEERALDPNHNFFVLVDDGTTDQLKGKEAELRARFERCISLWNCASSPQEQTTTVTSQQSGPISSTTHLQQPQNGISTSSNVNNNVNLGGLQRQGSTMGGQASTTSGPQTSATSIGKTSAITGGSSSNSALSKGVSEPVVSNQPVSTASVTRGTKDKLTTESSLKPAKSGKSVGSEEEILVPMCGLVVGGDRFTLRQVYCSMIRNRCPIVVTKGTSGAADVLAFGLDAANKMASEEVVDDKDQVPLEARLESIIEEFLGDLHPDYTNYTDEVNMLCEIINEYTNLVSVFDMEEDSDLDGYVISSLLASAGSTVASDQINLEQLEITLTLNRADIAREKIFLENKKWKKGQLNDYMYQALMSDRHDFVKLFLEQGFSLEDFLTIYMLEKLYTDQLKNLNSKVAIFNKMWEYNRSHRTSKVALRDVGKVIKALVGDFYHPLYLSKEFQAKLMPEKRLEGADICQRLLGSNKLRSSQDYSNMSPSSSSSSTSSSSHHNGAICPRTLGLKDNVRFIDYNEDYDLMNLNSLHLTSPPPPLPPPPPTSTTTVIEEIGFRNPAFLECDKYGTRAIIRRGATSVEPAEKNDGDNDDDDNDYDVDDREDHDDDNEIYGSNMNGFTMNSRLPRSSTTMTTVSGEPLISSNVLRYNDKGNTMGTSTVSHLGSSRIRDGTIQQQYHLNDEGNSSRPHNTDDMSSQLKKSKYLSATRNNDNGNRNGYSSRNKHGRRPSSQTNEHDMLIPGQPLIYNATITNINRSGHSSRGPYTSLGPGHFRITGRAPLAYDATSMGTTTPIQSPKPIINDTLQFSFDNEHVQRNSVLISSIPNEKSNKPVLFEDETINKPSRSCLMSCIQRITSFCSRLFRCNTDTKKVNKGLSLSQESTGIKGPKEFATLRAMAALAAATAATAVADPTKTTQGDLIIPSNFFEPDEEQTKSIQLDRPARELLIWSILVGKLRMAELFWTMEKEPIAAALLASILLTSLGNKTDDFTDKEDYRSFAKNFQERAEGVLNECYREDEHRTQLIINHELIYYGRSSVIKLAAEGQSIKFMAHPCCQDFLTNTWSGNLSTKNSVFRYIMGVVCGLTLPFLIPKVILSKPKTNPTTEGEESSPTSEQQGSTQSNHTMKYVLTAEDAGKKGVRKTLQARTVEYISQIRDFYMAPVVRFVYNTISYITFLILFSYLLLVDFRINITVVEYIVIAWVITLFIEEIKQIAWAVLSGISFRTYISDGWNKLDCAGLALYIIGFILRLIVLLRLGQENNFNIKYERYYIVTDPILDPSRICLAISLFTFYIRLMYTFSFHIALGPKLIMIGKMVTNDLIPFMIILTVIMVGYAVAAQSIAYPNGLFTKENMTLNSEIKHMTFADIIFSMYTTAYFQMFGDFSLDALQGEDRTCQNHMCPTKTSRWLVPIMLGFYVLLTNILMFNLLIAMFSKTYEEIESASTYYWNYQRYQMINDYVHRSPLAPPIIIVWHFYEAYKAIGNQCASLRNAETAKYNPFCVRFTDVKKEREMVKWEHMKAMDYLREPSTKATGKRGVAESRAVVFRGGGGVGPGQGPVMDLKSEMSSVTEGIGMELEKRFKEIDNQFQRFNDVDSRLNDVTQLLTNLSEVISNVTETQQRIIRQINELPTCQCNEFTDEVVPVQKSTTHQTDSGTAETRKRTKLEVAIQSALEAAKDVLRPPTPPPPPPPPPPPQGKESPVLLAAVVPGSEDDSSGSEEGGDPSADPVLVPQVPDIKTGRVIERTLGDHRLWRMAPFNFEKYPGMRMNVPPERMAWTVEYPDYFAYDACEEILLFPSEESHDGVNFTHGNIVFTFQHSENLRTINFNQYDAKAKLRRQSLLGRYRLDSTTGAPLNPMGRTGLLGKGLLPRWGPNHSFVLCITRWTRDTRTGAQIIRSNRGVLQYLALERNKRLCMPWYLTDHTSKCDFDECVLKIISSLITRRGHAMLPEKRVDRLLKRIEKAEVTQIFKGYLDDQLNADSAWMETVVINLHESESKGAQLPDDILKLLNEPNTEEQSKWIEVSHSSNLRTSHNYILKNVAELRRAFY

Row | Compound | activation of Sm.TRPMPZQ (Sm.TRPMPZQ [1]) | ΔF/F, amplitude of Ca2+ transient (endogenous receptors) | Sm.TRPMPZQ AG Averaged Max % Response (Sm.TRPMPZQ [2]) [%] | Sm.TRPMPZQ ANT Averaged Max % Response (Sm.TRPMPZQ [3]) [%] | HEK AG Averaged Max % Response [4] [%] | EC50 [4] [µM] | HEK ANT Averaged Max % Response [5] [%]
1 | O=C1NC(c2cccc([N+](=O)[O-])c2)=CCN1c1ccccc1O [icilin] | not activated |  |  |  |  |  | 
2 | Nc1ncnc2c1ncn2[C@@H]1O[C@H](COP(=O)(O)OP(=O)(O)OP(=O)(O)O)[C@@H](O)[C@H]1O [ATP] |  | 4.5±1.5 |  |  |  |  | 
3 | Cc1cc(C)n(-c2ccc(-n3cccc3/C=C(/C#N)S(=O)(=O)c3ccccc3)cc2)n1 [SR-02000000290-3] |  |  | 6.499 | 71.9269 | 13.2678 | > 12.4 | 37.5091
4 | CC1CCC(C(C)C)C(O)C1 (stereo not shown) [menthol] | not activated |  |  |  |  |  | 
5 | FC(F)(F)c1ccc2c(c1)nc(SCc1ccccc1)n2CCc1ccccc1 [SR-07000003001-2] |  |  | 3.104 | 61.2456 | 8.753 | > 12.4 | 21.2984
